# Experimental data published in US10471046B2, “Method for treating, preventing, or reducing the risk of skin infection” (Melinta Subsidiary Corp., priority 2014, dated 2019).
# Test system: S. aureus
# Experiment: Minimum inhibitory concentrations (MICs) for S. aureus of exemplary compounds (Table 2)
# Type: cell-based
# Settings: Staphylococcus aureus, minimum inhibitory concentrations for S. aureus; read-out: MICs
# Outline: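 MICs (μg/mL) against S. aureus come from microtiter-tray dilution susceptibility testing per NCCLS M7-A5, comparing growth with and without compound.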
row,MIC [µg/mL],Compound
1,2,"CC(=O)NC[C@H]1CN(c2ccc(-c3ccc(CNC(=O)C4CNCCN4)cc3)c(F)c2)C(=O)O1 (mixture of isomers) [Compound 4322, Piperazine-2-(R/S)-carboxylic acid {4′-[5-(S)-(acetylamino-methyl)-2-oxo-oxazolidin-3-yl]-2′-fluoro-biphenyl-4-ylmethyl}-amide]"
2,2,"CC(=O)NC[C@H]1CN(c2ccc(-c3ccc(CNCc4ccc(Br)cn4)cc3)c(F)c2)C(=O)O1 [Compound 4182, N-[3-(4′-{[(5-Bromo-pyridin-2-ylmethyl)-amino]-methyl}-2-fluoro-biphenyl-4-yl)-2-oxo-oxazolidin-5-(S)-ylmethyl]-acetamide]"
3,8,"CC(=O)NC[C@H]1CN(c2ccc(-c3ccc(CNCC4CCN(C(=O)OC(C)(C)C)CC4)cc3)c(F)c2)C(=O)O1 [Compound 4298, 4-[({4′-[5-(S)-(Acetylamino-methyl)-2-oxo-oxazolidin-3-yl]-2′-fluoro-biphenyl-4-ylmethyl}-amino)-methyl]-piperidine-1-carboxylic acid tert-butylester]"
4,4,"CC(=O)NC[C@H]1CN(c2ccc(-c3ccc(CNCCc4cnn[nH]4)cc3)c(F)c2)C(=O)O1 [Compound 4266, N-[3-(2-Fluoro-4′-{[2-(3H-[1,2,3]triazol-4-yl)-ethylamino]-methyl}-biphenyl-4-yl)-2-oxo-oxazolidin-5-(S)-ylmethyl]-acetamide]"
5,2,"CC(=O)NC[C@H]1CN(c2ccc(-c3ccc(CNOCc4ccccc4)cc3)c(F)c2)C(=O)O1 [Compound 4263, N-{3-[4′-(Benzyloxyamino-methyl)-2-fluoro-biphenyl-4-yl]-2-oxo-oxazolidin-5-(S)-ylmethyl}-acetamide]"
6,0.25,"CC(=O)NC[C@H]1CN(c2ccc(-c3ccc(CNCc4cnnn4C)cc3)c(F)c2)C(=O)O1 [Compound 4272, N-[3-(2-Fluoro-4′-{[(3-methyl-3H-[1,2,3]triazol-4-ylmethyl)-amino]-methyl}-biphenyl-4-yl)-2-oxo-oxazolidin-5-(S)-ylmethyl]-acetamide]"
7,2,"CC(=O)NC[C@H]1CN(c2ccc(-c3ccc(CNCCC4C=Nc5ccc(C)cc54)cc3)c(F)c2)C(=O)O1 (stereo partly drawn) [Compound 4228, N-[3-(2-Fluoro-4′-{[2-(5-methyl-3H-indol-3-yl)-ethylamino]-methyl}-biphenyl-4-yl)-2-oxo-oxazolidin-5-(S)-ylmethyl]-acetamide]"
8,2,"CC(=O)NC[C@H]1CN(c2ccc(-c3ccc(CNC(=O)Cn4ccnn4)cc3)c(F)c2)C(=O)O1 [Compound 4239, N-{4′-[5-(S)-(Acetylamino-methyl)-2-oxo-oxazolidin-3-yl]-2′-fluoro-biphenyl-4-ylmethyl}-2-[1,2,3]triazol-1-yl-acetamide]"
9,0.25,"O=C1O[C@@H](Cn2ccnn2)CN1c1ccc(-c2ccc(CNCCSc3cnn[nH]3)cc2)c(F)c1 [Compound 5007, 3-(2-Fluoro-4′-{[2-(3H-[1,2,3]triazol-4-ylsulfanyl)-ethylamino]-methyl}-biphenyl-4-yl)-5-(R)-[1,2,3]triazol-1-ylmethyl-oxazolidin-2-one]"
10,2,"CC(=O)NC[C@H]1CN(c2ccc(-c3ccc(CNC(=O)[C@H](N)c4ccc(F)cc4)cc3)c(F)c2)C(=O)O1 [Compound 4297, N-{4′-[5-(S)-(Acetylamino-methyl)-2-oxo-oxazolidin-3-yl]-2′-fluoro-biphenyl-4-ylmethyl}-2-(R)-amino-2-(4-fluoro-phenyl)-acetamide]"

# Further lines, the molecule ahead of its results:
row,Compound,MIC [µg/mL]
1,"CC(=O)NC[C@H]1CN(c2ccc(-c3ccc(Cn4cccc4)nc3)c(F)c2)C(=O)O1 [Compound 1071, N-{3-[3-Fluoro-4-(6-pyrrol-1-ylmethyl-pyridin-3-yl)-phenyl]-2-oxo-oxazolidin-5-(S)-ylmethyl}-acetamide]",0.25
2,"CC(=O)NC[C@H]1CN(c2ccc(-c3ccc(CNCc4cccc5cnccc45)cc3)c(F)c2)C(=O)O1 [Compound 4065, N-[3-(2-Fluoro-4′-{[(isoquinolin-5-ylmethyl)-amino]-methyl}-biphenyl-4-yl)-2-oxo-oxazolidin-5-(S)-ylmethyl]-acetamide]",2
3,"CC(=O)NC[C@H]1CN(c2ccc(-c3ccc([C@H](O)Cn4ccnn4)cc3)c(F)c2)C(=O)O1 [Compound 1061, N-{3-[2-Fluoro-4′-(1-(S)-hydroxy-2-[1,2,3]triazol-1-yl-ethyl)-biphenyl-4-yl]-2-oxo-oxazolidin-5-(S)-ylmethyl}-acetamide]",1
4,"CC(=O)NC[C@H]1CN(c2ccc(-c3ccc(C(=N)NCc4ccncc4)cc3)c(F)c2)C(=O)O1 [Compound 4080, N-{3-[2-Fluoro-4′-(N-pyridin-4-ylmethyl-carbamimidoyl)-biphenyl-4-yl]-2-oxo-oxamlidin-5-(S)-ylmethyl}-acetamide]",128
5,"CC(=O)NC[C@H]1CN(c2ccc(-c3ccc(CNCc4ccc(-c5ccccn5)s4)cc3)c(F)c2)C(=O)O1 [Compound 4119, N-[3-(2-Fluoro-4′-{[(5-pyridin-2-yl-thiophen-2-ylmethyl)-amino]-methyl}-biphenyl-4-yl)-2-oxo-oxazolidin-5-(S)-ylmethyl]-acetamide]",1
6,"CC(=O)NC[C@H]1CN(c2ccc(-c3ccc(Cn4nccn4)cc3)c(F)c2)C(=O)O1 [Compound 1023, N-[3-(2-Fluoro-4′-[1,2,3]triazol-2-ylmethyl-biphenyl-4-yl)-2-oxo-oxazolidin-5-(S)-ylmethyl]-acetamide]",0.25
7,"CC(=O)NC[C@H]1CN(c2ccc(-c3ccc(CS(=O)(=O)Nc4cccnc4)cc3)c(F)c2)C(=O)O1 [Compound 2045, N-{3-[2-Fluoro-4′-(pyridin-3-ylsulfamoylmethyl)-biphenyl-4-yl]-2-oxo-oxazolidin-5-(S)-ylmethyl}-acetamide]",2
8,"CSc1nc(CNCc2ccc(-c3ccc(N4C[C@H](CNC(C)=O)OC4=O)cc3F)cc2)ccc1C#N [Compound 4128, N-[3-(4′-{[(5-Cyano-6-methylsulfanyl-pyridin-2-ylmethyl)-amino]-methyl}-2-fluoro-biphenyl-4-yl)-2-oxo-oxazolidin-5-(S)-ylmethyl]-acetamide]",0.5
9,"CC(=O)NC[C@H]1CN(c2ccc(-c3ccc(Cn4nnc5c(=O)[nH]cnc54)cc3)c(F)c2)C(=O)O1 [Compound 1027, N-{3-[2-Fluoro-4′-(7-oxo-6,7-dihydro-[1,2,3]triazolo[4,5-d]pyrimidin-3-ylmethyl)-biphenyl-4-yl]-2-oxo-oxazolidin-5-(S)-ylmethyl}-acetamide]",1
10,"CC(=O)NC[C@H]1CN(c2ccc(-c3ccc(Cn4cccn4)nc3)c(F)c2)C(=O)O1 [Compound 1076, N-{3-[3-Fluoro-4-(6-pyrazol-1-ylmethyl-pyridin-3-yl)-phenyl]-2-oxo-oxazolidin-5-(S)-ylmethyl}-acetamide]",1
11,"CC(=O)NC[C@H]1CN(c2ccc(-c3ccc(CNCc4ccncc4F)cc3)c(F)c2)C(=O)O1 [Compound 4179, N-[3-(2-Fluoro-4′-{[(3-fluoro-pyridin-4-ylmethyl)-amino]-methyl}-biphenyl-4-yl)-2-oxo-oxazolidin-5-(S)-ylmethyl]-acetamide]",2
12,"CC(=O)NC[C@H]1CC(c2ccc(-c3ccc(CNCc4ccncc4)cc3)nc2)=NO1 [Compound 4133, N-{3-[6-(4-{[(Pyridin-4-ylmethyl)-amino]-methyl}-phenyl)-pyridin-3-yl]-4,5-dihydro-isoxazol-5-(R)-ylmethyl}-acetamide]",128
13,"CC(=O)NC[C@H]1CN(c2ccc(-c3ccc(CNCc4ccccn4)c(F)c3F)c(F)c2)C(=O)O1 [Compound 4090, N-[2-Oxo-3-(2,2′,3′-trifluoro-4′-{[(pyridin-2-ylmethyl)-amino]-methyl}-biphenyl-4-yl)-oxazolidin-5-(S)-ylmethyl]-acetamide]",4
14,"CC(=O)NC[C@H]1CN(c2ccc(-c3ccc(S(=O)(=O)Cc4ccncc4)cc3)c(F)c2)C(=O)O1 [Compound 3003, N-{3-[2-Fluoro-4′-(pyridin-4-ylmethanesulfonyl)-biphenyl-4-yl]-2-oxo-oxazolidin-5-(S)-ylmethyl}-acetamide]",2
15,"CC(=O)NC[C@H]1CN(c2ccc(-c3ccc(CNCc4c(C)[nH]c(=O)[nH]c4=O)cc3)c(F)c2)C(=O)O1 [Compound 4057, N-[3-(2-Fluoro-4′-{[(6-methyl-2,4-dioxo-1,2,3,4-tetrahydro-pyrimidin-5-ylmethyl)-amino]-methyl}-biphenyl-4-yl)-2-oxo-oxazolidin-5-(S)-ylmethyl]-acetamide]",16
16,"CC(=O)NC[C@H]1CN(c2ccc(-c3ccc(CCn4ccnc4)cc3)c(F)c2)C(=O)O1 [Compound 1002, N-{3-[2-Fluoro-4′-(2-imidazol-1-yl-ethyl)-biphenyl-4-yl]-2-oxo-oxazolidin-5-(S)-ylmethyl}-acetamide]",2
17,"CC(=O)NC[C@H]1CN(c2ccc(-c3ccc(C[S+]([O-])c4cnn[nH]4)cc3)c(F)c2)C(=O)O1 (stereo partly drawn) [Compound 2021, N-{3-[2-Fluoro-4′-(3H-[1,2,3]triazole-4-sulfinylmethyl)-biphenyl-4-yl]-2-oxo-oxazolidin-5-(S)-ylmethyl}-acetamide]",2
18,"CC(=O)NC[C@H]1CN(c2ccc(-c3ccc(CN4CCN(CC#N)CC4)cc3)c(F)c2)C(=O)O1 [Compound 1004, N-{3-[4′-(4-Cyanomethyl-piperazin-1-ylmethyl)-2-fluoro-biphenyl-4-yl]-2-oxo-oxazolidin-5-(S)-ylmethyl}-acetamide]",2
19,"CC(=O)NC[C@H]1CN(c2ccc(-c3ccc(CNCc4c[nH]c(C)n4)cc3)c(F)c2)C(=O)O1 [Compound 4165, N-[3-(2-Fluoro-4′-{[(2-methyl-1H-imidazol-4-ylmethyl)-amino]-methyl}-biphenyl-4-yl)-2-oxo-oxazolidin-5-(S)-ylmethyl]-acetamide]",4
20,"CC(=O)NC[C@H]1CN(c2ccc(-c3ccc(CNCc4nccn4C)cc3)c(F)c2)C(=O)O1 [Compound 4076, N-[3-(2-Fluoro-4′-{[(1-methyl-1H-imidazol-2-ylmethyl)-amino]-methyl}-biphenyl-4-yl)-2-oxo-oxazolidin-5-(S)-ylmethyl]-acetamide]",4
